Assay results as given in article PMC7710018, “Restoration of motor learning in a mouse model of Rett syndrome following long-term treatment with a novel small-molecule activator of TrkB” (Disease Models & Mechanisms, 2020).
“Also recorded” adds a separate entry of the source.

Experiments:
[1] = tested on: 4 different strains of Salmonella typhimurium; assay: AMES DNA mutagenesis (Cerep); format: cell-based; conditions: 5, 10, 50 and 100 µM; 4 strains
Experimental: (§1) To evaluate the relative binding specificity of LM22A-4 ([Massa et al., 2010]) and PTX-BD4-3, binding to a broad range of 55 pharmacologically relevant receptors, including numerous neurotransmitter and G-protein coupled receptors was assessed using standard radioligand competition binding assays (ExpressSProfile) performed by Cerep, Inc. (Seattle, WA, USA). In addition, ADME-Tox analysis was performed by Cerep, Inc. All experimental conditions are described on the Cerep website (www.cerep.fr).
(§2) Aqueous Human CYP inhibition (10µM) AMES hERG solubility hepatocyte DNA testing
(§3) (µM) metabolic mutagenesis
(§4) PTX‐BD4‐3 200 >60 negative negative negative
Table S2. Solubility, metabolism and toxicity screens for LM22A-4 and PTX-BD4-3. Standardized assays of solubility, metabolic stability and in vitro toxicity were performed to further evaluate the potential of PTX-BD4-3 as a lead candidate molecule for the treatment of Rett syndrome, and to compare its profile to that of the parent compound LM22A-4. Aqueous solubility of both compounds, which is used as a surrogate measure of absorption, was at or near the assay maximum of 200 µM. The metabolic stability of both compounds at 10 µM was evaluated at 5 different time points in […] and found to be >60 min, indicating favorable stability. […]

[2] = tested on: E16 mouse hippocampal neurons; assay: Hippocampal neuron survival (ViaLight assay and Tuj1-positive cell counts); format: cell-based; conditions: for neurotrophic activity in the presence of function-blocking anti-TrkB^ECD antibody: compounds 1000 nM, BDNF 20 ng/ml, vs control antibody
Text: To further confirm that PTX-BD4-3 promotes biologically relevant activity through TrkB, we examined the effect of PTX-BD4-3 on survival of cultured hippocampal neurons, using two different methods (Fig. 3A-C). […] It would be expected that although there is a correlation between survival status and mitochondrial metabolic status, one could have some degree of variability in metabolic function for a given level of cell survival. […] Because the plateau effect of PTX-BD4-3 on survival was observed between 500 nM and 1000 nM, we chose 1000 nM as a standard concentration for subsequent mechanistic studies.
Fig. 3. […] (A) Fluorescence photomicrographs (original magnification, ×40) of Tuj1-immunostained E16 mouse hippocampal neuronal cultures treated with culture medium (CM) alone, BDNF, LM22A-4 or PTX-BD4-3 for 48 h. Scale bar: 10 μm. (B) Neuron survival dose-response curves for LM22A-4 and PTX-BD4-3 were generated using the ViaLight assay; data were normalized to survival achieved with 20 ng/ml (∼0.7 nM) BDNF and compared with wells receiving culture medium medium (CM) alone. n=10-32 wells per group derived from four to five independent experiments. (C) Survival analysis of hippocampal neurons treated with either 20 ng/ml BDNF, 500 nM or 1000 nM LM22A-4 or 500 nM or 1000 nM PTX-BD4-3 for 48 h. Tuj1-positive cells counts were normalized to the survival achieved with BDNF and compared with wells treated with […]. n=32-40 wells per group derived from six independent experiments. Statistical significance in B and C was determined by one-way ANOVA with Dunnett's post hoc multiple comparison tests. *P≤0.05, ^§P≤0.001 compared to control (CM). (D) Survival of hippocampal neurons treated with CM, 20ng/ml BDNF (B), 1000 nM LM22A-4 or 1000 nM PTX-BD4-3 with or without anti-TrkB antibody (Bab) or non-immune serum (non). n=37-42 wells per group derived from five independent experiments. *P≤0.05, **P≤0.01, ***P≤0.001 (non vs Bab), Mann-Whitney test; *P≤0.05, ^ψP≤0.01, ^§P≤0.001 (compared to CM), one-way ANOVA with Dunnett's post hoc multiple comparison test.
Hippocampal neuron cultures were prepared from E16 CF1 mouse fetuses as described previously ([Yang et al., 2006]). Under the low-density conditions used here, neuronal survival is dependent, in part, on addition of exogenous neurotrophins ([Yang et al., 2008]; [Walter et al., 2011]). LM22A-4 and PTX-BD4-3 were dissolved in water at a stock concentration of 10 mM prior to dilution (1:10,000) in culture medium. Cell survival following a 48-h exposure to BDNF, LM22A-4 or PTX-BD4-3 was quantified by either counting β-tubulin III-positive cell bodies ([Massa et al., 2006]; [Walter et al., 2011]) or by the ViaLight Assay described above.

8 different CYP enzymes = assay: CYP inhibition (Cerep); format: in vitro ADME; conditions: 10µM
Experimental: as §1, §2, §3, §4
Table S2. Solubility, metabolism and toxicity screens for LM22A-4 […]
and PTX-BD4-3. […]
Both compounds were negative in 3 different assays of in vitro toxicity; inhibition of 8 different CYP enzymes at 10 µM, DNA mutagenesis in 4 different strains of Salmonella typhimurium at 5, 10, 50 and 100 µM and cardiac toxicity, measured by […] of hERG channels at 0.1, 1 and 10 µM, where >50% inhibition of the tail current indicates significant cardiac toxicity.
(also on this page, place not known: Disease Models & Mechanisms: doi:10.1242/dmm.044685: Supplementary information Disease Models & Mechanisms • Supplementary information)

## O=C(NCCO)c1cc(C(=O)NCCO)cc(C(=O)NCCO)c1 [LM22A-4, N,N′,N′′-tris(2-hydroxyethyl)-1,3,5-benzenetricarboxamide, reference compound]
[1]
  AMES DNA mutagenesis: negative
[2]
  neurotrophic activity in the presence of function-blocking anti-TrkB^ECD antibody: reduction
8 different CYP enzymes
  CYP inhibition: negative

## COCCN(C)C(=O)c1cc(C(=O)N(C)CCOC)cc(C(=O)N(C)CCOC)c1 [PTX-BD4-3, benzene-1,3,5-tricarboxylic acid tris-[(2-methoxy-ethyl)-methyl-amide]]
[1]
  AMES DNA mutagenesis: negative; also recorded: no activity
[2]; 48 h, ViaLight and Tuj1 counts, normalized to 20 ng/ml BDNF
  maximum levels of neurotrophic activity: 80-100 % of that of BDNF
[2]; Mus musculus, Hippocampal neuron, 48 h, ViaLight and Tuj1 counts, read-out: half-maximal effective concentration (EC50), neurotrophic activity
  EC50: 300 to 500 nM
[2]
  neurotrophic activity in the presence of function-blocking anti-TrkB^ECD antibody: reduction
8 different CYP enzymes
  CYP inhibition: negative
